The source of these data is paper PMC12162769, “Synthesis and Evaluation of a Hybrid Miltefosine-Silver Nanoparticle Complex: Synergistic Interaction with Benznidazole Against Trypanosoma cruzi” (Acta Parasitologica, 2025).

The subject of data set [1] is T. cruzi ATCC 50825 strain epimastigotes. The experiment in a line: Minimum parasiticidal concentration (MPC), motility and morphology under inverted microscope. The class given is cell-based, Trypanosoma cruzi.
The nature of data set [2]: Cytotoxic activity, MTT assay. It counts as cell-based. The following applies: mouse, L929 fibroblast cells, read-out: IC50 L929 (cytotoxicity). As to the method: The Trypanosoma cruzi ATCC 50825 reference strain and the L929 mouse fibroblast cell line (American Type Culture Collection, USA) used in this study were obtained from the Parasite Bank of […] Bayar University Faculty of Medicine. Fibroblasts preserved in liquid nitrogen were treated with RPMI-1640 and passaged into RPMI-1640 medium containing 10% FBS (fetal bovine serum). The cells were incubated at 37 °C with 5% CO2 for 48 h. The number and viability of proliferating cells were determined using Trypan Blue staining and a hemocytometer. A 100 μL cell suspension containing 10^5 cells/mL was distributed into 96-well microplates. Serial dilutions of the […] suspension (final concentration range: 5000-39 μg/mL), miltefosine (final concentration range: 512-0.125 μg/mL), and benznidazole (final concentration range: 640-0.60 μg/mL) were prepared in a separate microplate and transferred to the microplates containing the cells. The plates were incubated at 37 °C with 5% CO2 for 48 h. […] IC50 values indicating cytotoxic activity were calculated using GraphPad Prism 8.4.2 software. The cytotoxic activity tests were repeated three times on different days.
A general note: Formazan colour is commonly taken as a measure of viable cells.

Data set [3] concerns T. cruzi ATCC 50825 strain epimastigotes. The experiment in a line: Antitrypanosomal activity, broth microdilution with MTT viability (IC50). It counts as cell-based, Trypanosoma cruzi. The following applies: for SI (selectivity index): IC50 fibroblasts (L929) / IC50 T. cruzi epimastigotes; for IC50: Trypanosoma cruzi. As to the method: The Trypanosoma cruzi ATCC 50825 reference strain and the L929 mouse fibroblast cell line (American Type Culture Collection, USA) used in this study were obtained from the Parasite Bank of […] Bayar University Faculty of Medicine. […] For the determination of antitrypanosomal activity, 100 μL of RPMI-1640 medium was distributed into each well of sterile, flat-bottom, 96-well microplates. Serial dilutions of the hybrid NP complex were prepared in the range of 2500-19.5 μg/mL, miltefosine in the range of 128-1 μg/mL, and benznidazole in the range of 320-0.30 μg/mL. […] The morphological structure and motility of the epimastigotes in all wells were observed under an inverted microscope. The lowest concentration of the active substance at which all parasites were immobile and their morphology was disrupted was determined as the minimum parasiticidal concentration (MPC). […] Absorbance values were measured at 570 nm using a Thermo Varioskan model spectrophotometer (USA). IC50 values indicating antitrypanosomal activity were calculated using GraphPad Prism 8.4.2 software. Efficacy tests were repeated three times on different days.
For orientation: Dilution methods test growth across graded concentrations, often in twofold steps.

The next data set deals with T. cruzi trypomastigote. The arrangement: method as in Gulin et al. (2022) [17]. The following applies: trypomastigote forms; ref Gulin et al. (2022) [17]; cited from earlier work.
The test system of the next data set is T. cruzi amastigote. The arrangement: method as in Gulin et al. (2022) [17]. The following applies: amastigote forms; ref Gulin et al. (2022) [17]; cited from earlier work.
The mark [4] stands for this setting: ATCC50825, 24 h, 24 h, epimastigotes.
[5] abbreviates: ATCC50825, 48 h, 48 h, epimastigotes.
Where [6] appears, read: ATCC50825, 72 h, 72 h, epimastigotes.

pIC50: −log10 of the molar value. In brackets after ≈: the same amount, converted by molar mass.

The IC50 is the point on the concentration scale where inhibition reaches its midpoint. One may read the pIC50 as the negative decadic logarithm of the IC50, by convention in mol/L.

`O=C(Cn1ccnc1[N+](=O)[O-])NCc1ccccc1` [Benznidazole]: the “MPC (minimum parasiticidal concentration)” value in data set [1] (24 h) was 155 µg/mL; in data set [1] (48 h), 155 µg/mL; in data set [1] (72 h), 77.5 µg/mL. Further, the half-inhibitory concentration (IC50) at 24 h in data set [2] worked out at 1010 µg/mL (≈ 3880 µM). Further, the IC50 at 48 h in data set [2] came to 822 µg/mL (≈ 3160 µM). In addition, the IC50 at 72 h in data set [2] was 807 µg/mL (≈ 3100 µM). For the same compound, the “SI (selectivity index)” value came to 15 in data set [3] (24 h), 18.2 in data set [3] (48 h) and 23 in data set [3] (72 h). For the same compound, the figures for the IC50 in data set [3] (setting [4]), in data set [3] (setting [5]) and in data set [3] (setting [6]) were 67.1 µg/mL (≈ 258 µM), 45 µg/mL (≈ 173 µM) and 34.5 µg/mL (≈ 133 µM), respectively.

Regarding `CCCCCCCCCCCCCCCCOP(=O)([O-])OCC[N+](C)(C)C` [Miltefosine], the entries for the “MPC (minimum parasiticidal concentration)” value in data set [1] (24 h), in data set [1] (48 h) and in data set [1] (72 h) were 128 µg/mL, 128 µg/mL and 64 µg/mL, respectively. The pIC50 is 6.26 with T. cruzi trypomastigote and 6.32 in the data set with T. cruzi amastigote. Moreover, the half-inhibitory concentration (IC50) at 24 h in data set [2] was 38 µg/mL (≈ 93.4 µM). In data set [2], the IC50 at 48 h came to 33.5 µg/mL (≈ 82.2 µM). Also, in data set [2], the IC50 at 72 h was 27 µg/mL (≈ 66.2 µM). For the same compound, the “SI (selectivity index)” value amounted to 1.5 in data set [3] (24 h), 2.2 in data set [3] (48 h) and 4.2 in data set [3] (72 h). In addition, the “IC50 T. cruzi” value in data set [3] (72 h, epimastigotes) worked out at 6.42 µg/mL (≈ 15.8 µM). In addition, the concentration for half-maximal inhibition (IC50) in data set [3] (setting [4]) amounted to 26.2 µg/mL (≈ 64.2 µM); in data set [3] (setting [5]) it was 15 µg/mL (≈ 36.8 µM); in data set [3] (setting [6]), 6.42 µg/mL (≈ 15.8 µM). In data set [3] (over 24, 48 and 72 h, L929 vs T. cruzi epimastigotes), the “Selectivity (SI) as worded” value is greater than 1.
